One molecule from US20240216440A1, “STRING-LIKE AGGREGATES OF RETINAL PIGMENT EPITHELIAL CELLS, DEVICE AND PRODUCTION METHOD FOR PRODUCING SAME, AND THERAPEUTIC AGENT COMPRISING SAID STRING-LIKE AGGREGATES” (RIKEN, priority 2021, published 2024) can be followed below.

“Also recorded” adds a separate entry of the source.

Holding throughout (assay type): cell-based, human
Experiment [1] relates to hiPSC-RPEs (M8 line). Kind of experiment: String-like aggregate formation under different Y-27632 concentrations, M8 line. The following applies: for appearance of string-like aggregates: day 2. The method, then:
After thawing, hiPSC-RPE cells were cultured for 2 weeks, the cells were collected, and seeded in the number described in each experiment into each groove of the PDMS-based culture device, using 15 μl RPE maintenance medium containing the optimal concentration of Y-27632 (concentrations indicated for each experiment). In the present inventors' preliminary experiment (FIG. 14A), higher concentrations of Y-27632 appeared to affect the texture of the string-like aggregates to become tighter. […] Next, the present inventors directly compared string-like aggregates made with either 2.5 μM or 10 μM of Y-27632 (FIGS. 13B-G). […] On the other hand, string-like aggregates formed with 10 μM Y-27632 appeared more dense (FIG. 13B).

The subject of experiment [2] is hiPSC-RPE cells (201B7modFucci line). Description: Adhesion/expansion assay of plated string-like aggregates, 201B7modFucci line. As for the experimental part: The string-like aggregates were released from the grooves of the device, and the string-like aggregates were seeded onto an uncoated 24-well plate (Corning Incorporated) containing the mix medium. After adhesion of the string-like aggregates (2 to 3 days later), the medium was replaced with RPE maintenance medium (containing bFGF and SB431542). The dishes under culture were photographed using the IncuCyte Zoom system (Essen BioScience). From the obtained image data, expanded cells were manually marked using Fiji, and the expanded area was measured. The present inventors tested whether another hiPSC line could similarly form string-like aggregates. The present inventors used the 201B7modFucci line to induce RPE differentiation and compared it with hiPSC(M8)-RPE. hiPSC(201B7modFucci)-RPE also formed string-like aggregates like hiPSC(M8)-RPE, but the 201B7modFucci line required a Y-27632 concentration of 5 μM or higher to stably form string-like aggregates (FIG. 15-1A). The optimal Y-27632 concentration for adhesion/expansion assays was 5 μM for hiPSC(201B7modFucci)-string-like aggregates, and the optimal Y-27632 concentration for the desired adhesion/expansion effect varied depending on the cell line used and required optimization (FIGS. 14D and E). […]

In experiment [3] the test system is hiPSC-RPE cells (M8 line). Description: Adhesion and expansion of plated string-like aggregates on uncoated 24-well plate, M8 line. The following applies: for adhesion to plate and expansion of string-like aggregates: uncoated wells. As for the experimental part: The string-like aggregates were released from the grooves of the device, and the string-like aggregates were seeded onto an uncoated 24-well plate (Corning Incorporated) containing the mix medium. After adhesion of the string-like aggregates (2 to 3 days later), the medium was replaced with RPE maintenance medium (containing bFGF and SB431542). The dishes under culture were photographed using the IncuCyte Zoom system (Essen BioScience). From the obtained image data, expanded cells were manually marked using Fiji, and the expanded area was measured. In the present inventors' preliminary experiment (FIG. 14A), higher concentrations of Y-27632 appeared to affect the texture of the string-like aggregates to become tighter. […] The string-like aggregates on day 2 (FIGS. 13D and E) and day 3 (FIGS. 13F and G) were then used to compare cell expansion after plating in uncoated wells between string-like aggregates formed with 2.5 and 10 μM Y-27632.

Take `C[C@@H](N)[C@H]1CC[C@H](C(=O)Nc2ccncc2)CC1` [Y-27632]: in experiment [1] (M8 line, 0 and 1 μM Y-27632), the string-like aggregate formation result is “not successfully formed”. In experiment [1] (M8 line, tested 0, 1, 2, 2.5 and 10 μM), the “Y-27632 concentration at which hiPSC-RPEs were able to form string-like aggregate shape” value was “above 2 μM”. For the same molecule, the “appearance of string-like aggregates” value in experiment [1] (formed with 2.5 μM Y-27632) was “flat and loose”; in experiment [1] (formed with 10 μM Y-27632), “more dense”. The “adhesiveness of string-like aggregates to the plate” value in experiment [2] (aggregates added with 2-2.5 μM Y-27632, 201B7modFucci line, day 2 aggregates, 24-well plate) is “consistently adherent to the plate”; in experiment [3] (aggregates added with 2-2.5 μM Y-27632, M8 line, day 2 aggregates, 24-well plate) it was “highest adhesiveness to the plate”. In addition, in experiment [2] (hiPSC(201B7modFucci)-string-like aggregates), the “optimal Y-27632 concentration for adhesion/expansion assays” value was determined as 5 µM. Besides, the “adhesion to plate and expansion of string-like aggregates” value in experiment [3] (aggregates formed with 2.5 μM Y-27632, compared with 10 μM, day 2 and day 3 aggregates) was “tended to attach to the plate and begin to expand early after placing; also recorded: higher adhesiveness to the plate, covered more area, and began to expand faster on the plate”; in experiment [3] (aggregates formed with 10 μM Y-27632), “expansion was delayed; also recorded: tended to be coil-like and moved around for several days before settling and starting to expand”.
